The values that follow come from US9273084B2, “Moenomycin analogs, methods of synthesis, and uses thereof” (priority 2012, dated 2016).

Structures can show the parent of a compound that is named as a salt. Where only a bound is given, the exact number is not on record here.

Data set [1] has as its system S. epidermidis 700562. Kind of data set: MIC assay, 96 well broth dilution with MTT staining. It is filed as cell-based. The arrangement: unit not given beside the values. Conditions: BHI containing 0.1% casamino acids, 35-37° C., 20 h. The procedure:
(§1) A 96 well plate with 100 μL test medium in all wells was prepared by handheld multipipettor. A stock solution of the antibiotic or compound in DMSO (0.05˜10 mg/mL, 5 μL) and the same medium (95 μL) were put together into column one, where the compound concentration doubled the highest one to be tested. Two columns were necessary for each compound to check the reproducibility. The compound was diluted by adding 100 μL from column one to column two with a 50% volume mix done three times; diluting serially across the plate was continued.
(§2) The day before the assay was scheduled to be run, strains were suspended in the test media (Brain Heart Infusion (BHI) containing 0.1% casamino acids for S. aureus, S. epidermidis, and E. faecalis, Trypticase Soy Broth (TSB) containing 5% sheep blood for S. pneumoniae, and Lysogeny Broth (LB) for E. coli) and incubated overnight at 35-37° C. The suspension was diluted with the same media to 1%, 100 μL of which was added to each well of the MIC plate. The MIC plate was incubated at 35-37° C. for 20 h. A thiazolyl blue tetrazolium bromide (MTT) solution (1 mg/mL-water, 50 μL) was added into each well and the resulting MIC plate was incubated at 35-37° C. for a few hours to stain wells in which cell proliferated. Growth is also visible as any turbidity in wells.
For orientation: Dilution methods test growth across graded concentrations, often in twofold steps.

For data set [2], the system named is S. aureus 13709. The data set is described as above. It is filed as cell-based. Details: unit not given beside the values. Particulars: BHI containing 0.1% casamino acids, 35-37° C., 20 h. Here is the method: as §1, §2
Data set [3] relates to E. faecalis 33186. The data set is described as above. Conditions: BHI containing 0.1% casamino acids, 35-37° C., 20 h. The arrangement: unit not given beside the values. Type of data set: cell-based. Here is the method:
as §1, §2

For data set [4], the system named is E. coli MG1655. The description is as above. It is filed as cell-based. Details: unit not given beside the values. Conditions: LB, 35-37° C., 20 h. The procedure: as §1, §2
Data set [5] concerns S. epidermidis 1228. The description is as above. It is filed as cell-based. Details: unit not given beside the values. Conditions: BHI containing 0.1% casamino acids, 35-37° C., 20 h. Here is the method:
as §1, §2

Data set [6] concerns S. aureus 25923. The data set is described as above. It is filed as cell-based. The arrangement: unit not given beside the values. Conditions: S. aureus 25923 (second strain line); BHI containing 0.1% casamino acids; 35-37° C., 20 h. Here is the method:
as §1, §2

In data set [7] the test system is E. faecalis 29212. The description is as above. It is filed as cell-based. Details: unit not given beside the values. Particulars: BHI containing 0.1% casamino acids, 35-37° C., 20 h. The procedure:
as §1, §2

For data set [8], the system named is S. pneumoniae #1629. The description is as above. It is filed as cell-based. Conditions: TSB containing 5% sheep blood, 35-37° C., 20 h. Here is the method: as §1, §2
For data set [9], the system named is S. pneumoniae 6303. Described as above. Conditions: TSB containing 5% sheep blood, 35-37° C., 20 h. It is filed as cell-based. The procedure: as §1, §2
Data set [10] relates to E. coli NR698. It is filed as cell-based. The arrangement: unit not given beside the values. Conditions: LB, 35-37° C., 20 h. The procedure:
as §1, §2

The nature of data set [11]: Pharmacokinetics following IV and SC administration. It is filed as in vivo. Conditions: for half-life: NCA analysis. Here is the method: Curtailing the tail portion of Moenomycin A (MmA) led to shorter half-life. […] The clearance following IV administration was very low leading higher exposure (3 mL/hr/kg) and volume of distribution (Vss) was 0.5 L/kg.
The test system of data set [12] is Gram-positive organisms. Conditions: against Gram-positive organisms; cited from earlier work.
Where [13] appears, read: S. aureus 13709 (first strain line).
Where [14] appears, read: S. aureus 13709 (third strain line).

As to `CCCCCCCCCCCCCCCCOC(COP(=O)(O)OC1OC(C(N)=O)C(C)(O)C(OC(N)=O)C1OC1OC(COC2OC(CO)C(O)C(O)C2O)C(OC2OC(C)C(OC3OC(C(=O)NC4=C(O)CCC4=O)C(O)C(O)C3O)C(O)C2NC(C)=O)C(O)C1NC(C)=O)C(=O)O.N` [1g, N1-[(2-Hydroxy-5-oxo-cyclopenten-1-yl)-(5S)-β-D-galactopyranuronamide]-(1→4)-2-acetamide-2,6-dideoxy-β-D-gluopyranosyl-(1→4)-[β-D-glucopyranosyl-(1→6)]-2-acetamido-2-deoxy-β-D-glucopyranosyl)-(1→2)-3-O-carbamoyl-1-O—{[(R)-2-carboxy-2-(hexadecan-1-yloxy)ethoxy]hydroxyphosphoryl}-4-C-methyl-α-D-glucopyranuronamide], the MIC in [1] is 31; in data set [2] (setting [13]), 16; in data set [2] (setting [14]) it was 16; in data set [3], 16; in data set [4], 250; in data set [5], 16. Also, the MIC is recorded as 16 in data set [6]; 31 in data set [7]; 16 in [8]; 16 in [9]; 0.16 in data set [10].

`CC(=O)NC1C(OC2C(COC3OC(CO)C(O)C(O)C3O)OC(OC3C(OP(=O)(O)OCC(OCc4cccc(OCc5cccc(-c6cccc(OCc7ccccc7)c6)c5)c4)C(=O)O)OC(C(N)=O)C(C)(O)C3OC(N)=O)C(NC(C)=O)C2O)OC(C)C(OC2OC(C(=O)NC3=C(O)CCC3=O)C(O)C(O)C2O)C1O.N` [1i, N1-[(2-Hydroxy-5-oxo-cyclopenten-1-yl)-(5S)-β-D-galactopyranuronamide]-(1→4)-2-acetamide-2,6-dideoxy-β-D-gluopyranosyl-(1→4)-[β-D-glucopyranosyl-(1→6)]-2-acetamido-2-deoxy-β-D-glucopyranosyl)-(1→2)-3-O-carbamoyl-1-O—{[(R)-2-carboxy-2-(3-((3′-(benzyloxy)-[1,1′-biphenyl]-3-yl)methoxy)phenylmethan-1-yloxy)ethoxy]hydroxyphosphoryl}-4-C-methyl-α-D-glucopyranuronamide]: the MIC in data set [1] was 7.8; in [2] (setting [13]) it was 7.8; in data set [2] (setting [14]), 7.8; in [3], 32; in data set [4], above 250; in [5], 3.9. The MIC in data set [6] stood at 7.8; in data set [7] it was 16; in [8], 7.8; in [9], 3.9; in [10], 0.49.

`CC(=O)NC1C(OC2C(COC3OC(CO)C(O)C(O)C3O)OC(OC3C(OP(=O)(O)OCC(OCc4cccc(OCc5cccc(-c6cccc(C)c6)c5)c4)C(=O)O)OC(C(N)=O)C(C)(O)C3OC(N)=O)C(NC(C)=O)C2O)OC(C)C(OC2OC(C(=O)NC3=C(O)CCC3=O)C(O)C(O)C2O)C1O.N` [1j, N1-[(2-Hydroxy-5-oxo-cyclopenten-1-yl)-(5S)-β-D-galactopyranuronamide]-(1→4)-2-acetamide-2,6-dideoxy-β-D-gluopyranosyl-(1→4)-[β-D-glucopyranosyl-(1→6)]-2-acetamido-2-deoxy-β-D-glucopyranosyl)-(1→2)-3-O-carbamoyl-1-O—{[(R)-2-carboxy-2-(3-((3′-methyl-[1,1′-biphenyl]-3-yl)methoxy)phenylmethan-1-yloxy)ethoxy]hydroxyphosphoryl}-4-C-methyl-α-D-glucopyranuronamide]: the MIC in data set [1] is reported as above 250; in data set [2] (setting [13]), >250 >250 >250; in [2] (setting [14]) it was >250 >250 >250; in data set [3], >250 >250; in [4] it was above 250; in data set [5], 125. The MIC is reported as >250 >250 >250 in data set [6]; >250 >250 in data set [7]; 16 in data set [8]; 16 in data set [9]; 0.98 in data set [10].

Usually half-life stands for how long it takes for the measured level to halve. With `C=C(C/C=C(\C)CCC=C(C)C)CCC(C)(C)/C=C/CC/C(C)=C/CO[C@@H](COP(=O)(O)O[C@H]1O[C@H](C(N)=O)[C@@](C)(O)[C@H](OC(N)=O)[C@H]1O[C@@H]1O[C@H](CO[C@@H]2O[C@H](CO)[C@@H](O)[C@H](O)[C@H]2O)[C@@H](O[C@@H]2O[C@H](C)[C@@H](O[C@@H]3O[C@H](C(=O)NC4=C(O)CCC4=O)[C@H](O)[C@H](O)[C@H]3O)[C@H](O)[C@H]2NC(C)=O)[C@H](O)[C@H]1NC(C)=O)C(=O)O` [Moenomycin A], in data set [11] (IV administration (2 mpk)), the clearance came out at 3 mL/h/kg. Besides, the “volume of distribution (Vss)” value in data set [11] (IV administration (2 mpk)) is reported as 0.5 L/kg. Also, the half-life in [11] (IV administration (2 mpk)) worked out at 209 h; in data set [11] (SC administration (10 mpk)), 180 h. Further, in data set [11] (SC (10 mpk) vs IV (2 mpk)), the “% SC bioavailability” value was 89%. For the same molecule, the systemic exposure result in data set [11] (following IV (2 mpk) and SC (10 mpk) administration) is recorded as “significant systemic exposure”. In addition, the MIC in data set [2] (setting [13]) is 0.16; in data set [2] (setting [14]), 0.078; in [4], 31; in data set [6], 0.16; in data set [10], 0.0098. Also, in data set [12], the “potency compared with vancomycin” value is 10-1000 times.

As to `CN[C@H](CC(C)C)C(=O)N[C@H]1C(=O)N[C@@H](CC(N)=O)C(=O)N[C@H]2C(=O)N[C@H]3C(=O)N[C@H](C(=O)N[C@H](C(=O)O)c4cc(O)cc(O)c4-c4cc3ccc4O)[C@H](O)c3ccc(c(Cl)c3)Oc3cc2cc(c3O[C@@H]2O[C@H](CO)[C@@H](O)[C@H](O)[C@H]2O[C@H]2C[C@](C)(N)[C@H](O)[C@H](C)O2)Oc2ccc(cc2Cl)[C@H]1O` [Vancomycin•HCl, reference compound], the MIC is reported as 3.9 in data set [1]; 3.9 in data set [2] (setting [13]); 2.0 in data set [2] (setting [14]); 2.0 in data set [3]; 250 in [4]; 2.0 in [5]. For the same molecule, the MIC in data set [6] is given as 3.9; in data set [7], 3.9; in data set [8] it was 0.49; in data set [9], 0.49; in data set [10] it was 0.49.
